Laboratory results published in publication PMC10062662, “Quantitative determination of lurbinectedin, its unbound fraction and its metabolites in human plasma utilizing ultra-performance LC–MS/MS” (PLOS ONE, 2023).
Read-outs that look alike come from different tables or passages of the source.

Key:
[1] = Plasma protein binding by RED in artificial plasma (PBS with recombinant human AAG and albumin); type: in vitro ADME; details: human; for fraction unbound at 8 h, 500 ng/mL: lurbinectedin 500 ng/mL
Text: (§1) RED was considered the best alternative over other methods (e.g., ultrafiltration) to separate lurbinectedin unbound fraction (fu), due to high non-specific binding (NSB) of lurbinectedin leading to adsorption. The RED device consists of a cylinder of dialysis membrane with an 8-kDa molecular weight cut-off held in place by a polytetrafluoroethylene support; the dialysis membrane tube is closed at one end. The RED devices are disposable and used in a reusable polytetrafluoroethylene support plate (holds a maximum of 48 devices). The design of the plate and device allows for PBS to be added in such a way that it can circulate freely around the cylinder of dialysis membrane. In use, spiked plasma (400 μL) is added to the dialysis membrane cylinder part of the RED device, and PBS (600 μL) is added to the other side. The plate, device and volumes used result in a consistent fluid level across both sides of the membrane, preventing mass movement of fluid across the membrane due to hydrostatic pressure.
(§2) Each measurement was performed using three RED devices; the devices were placed in the plate and spiked plasma and PBS were added. The plate was then mixed on an incubating microplate shaker at 100 rpm and 37°C for 8 hours.
(§3) Both the plasma (diluted 1 in 20 with plasma:PBS 1:1, v:v) and PBS (diluted with plasma 1:1, v:v) were assayed in triplicate using the extraction and UPLC-MS/MS method described above. Transfer of the PBS from the incubation plate into an equivalent volume of plasma prior to assay was performed using pipette tips that had been pre-treated with Sigmacote®.
(§4) PPB of lurbinectedin was also studied in artificial plasma (PBS with recombinant human AAG and albumin) at different levels of AAG, albumin and lurbinectedin to estimate the dissociation rate constants for each of these plasma proteins. Several experimental conditions, performed in triplicate, with triplicate analyses, were explored:
(§5) • Condition 1 with lurbinectedin at 500 ng/mL, AAG at 0, 0.25, 0.75, 1, 2 and 4 mg/mL and albumin at 40 mg/mL. • Condition 2 with lurbinectedin at 500 ng/mL, AAG at 1 mg/mL and albumin at 25, 35, 40, 45 and 50 mg/mL. • Condition 3 with lurbinectedin at 50, 75, 100, 250 and 500 ng/mL, AAG at 1 mg/mL and albumin at 40 mg/mL.

[2] = biological target: T1, recombinant human AAG and albumin (Homo sapiens, UniProt P02768); assay: as above; type: in vitro ADME; details: without AAG, albumin 40 mg/mL, lurbinectedin 500 ng/mL
T1 construct: purchased Sigma-Aldrich
T1 sequence (P02768 25-609): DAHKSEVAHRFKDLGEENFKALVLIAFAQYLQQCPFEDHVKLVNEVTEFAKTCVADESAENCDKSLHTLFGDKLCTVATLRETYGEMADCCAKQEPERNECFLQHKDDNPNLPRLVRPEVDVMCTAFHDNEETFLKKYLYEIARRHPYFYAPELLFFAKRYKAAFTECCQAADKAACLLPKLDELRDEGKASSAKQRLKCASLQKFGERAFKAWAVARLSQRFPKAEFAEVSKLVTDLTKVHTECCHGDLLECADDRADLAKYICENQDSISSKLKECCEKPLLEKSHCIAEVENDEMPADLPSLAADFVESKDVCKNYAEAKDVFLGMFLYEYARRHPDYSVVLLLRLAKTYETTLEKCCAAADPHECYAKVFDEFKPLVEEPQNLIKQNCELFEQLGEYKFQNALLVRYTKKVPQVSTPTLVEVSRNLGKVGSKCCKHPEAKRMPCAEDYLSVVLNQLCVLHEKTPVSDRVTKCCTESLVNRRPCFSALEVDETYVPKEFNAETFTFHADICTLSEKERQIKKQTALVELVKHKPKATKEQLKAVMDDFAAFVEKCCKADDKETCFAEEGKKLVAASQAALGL
Text: as §1, §2, §3, §4, §5

[3] = tested on: recombinant human AAG and albumin; assay: as above; type: in vitro ADME
Text: as §1, §2, §3, §4, §5

[4] = Lurbinectedin concentration in treated patient plasma sample (UPLC-MS/MS); type: in vivo, human; details: single treated patient plasma sample of Fig 2
Protocol: The sample extraction was performed by adding 100 μL of the CS, QC or test sample, 50 μL of aqueous IS solution and 50 μL of 1 M ammonium hydroxide to a 300-μL 96-well microtiter plate. This was then mixed and transferred to a 200-mg Isolute SLE+ plate. After 5 minutes of equilibrium, the samples were then eluted from the SLE plate with 1 mL of MTBE into glass inserts and dried under nitrogen. The samples were then reconstituted with 40 μL of acetonitrile:water (1:1, v:v) with 0.1% of formic acid prior to analysis.
The ultra-performance liquid chromatography (UPLC) system was coupled to a triple quadrupole mass spectrometer. The UPLC system was a Acquity system (Waters, Milford, MA, USA) and composed of a binary pump, column oven and cooled auto sampler. The mass spectrometer was a TQD with an electrospray ionization source from Waters.
The analytical column was a BEH C18 (1.7 μm, 50 × 2.1 mm) and was used in conjunction with a pre-column frit (0.2 μm, 2.1 mm) from Waters. The chromatographic separation was performed at 50°C with a flow rate of 0.4 mL/minute utilizing a linear gradient of water (A) and acetonitrile (B), both with 0.1% ammonium hydroxide: 10% to 100% B from 0.00 to 1.00 minute; isocratic at 100% B for 1.50 minute, then returning to initial conditions from 2.50 to 2.51 minutes with a total run time of 3.5 minutes. The samples were kept at 10°C until injection (10 μL). […]

Question: Which results are given for `COc1ccc2[nH]c3c(c2c1)CCN[C@]31CS[C@@H]2c3c(OC(C)=O)c(C)c4c(c3[C@H](COC1=O)N1[C@@H]2[C@H]2c3c(cc(C)c(OC)c3O)C[C@@H]([C@@H]1O)N2C)OCO4` [Lurbinectedin]?
Answer: fraction unbound at 8 h, 500 ng/mL ([1]; AAG 0.25 mg/mL, albumin 40 mg/mL, read-out: mean percent unbound): 0.0168; fraction unbound at 8 h, 500 ng/mL ([1]; AAG 0.75 mg/mL, albumin 40 mg/mL, read-out: mean percent unbound): 0.00604; fraction unbound at 8 h, 500 ng/mL ([1]; AAG 1 mg/mL, albumin 40 mg/mL, read-out: mean percent unbound): 0.00473; fraction unbound at 8 h, 500 ng/mL ([1]; AAG 2 mg/mL, albumin 40 mg/mL, read-out: mean percent unbound): 0.00259; fraction unbound at 8 h, 500 ng/mL ([1]; AAG 4 mg/mL, albumin 40 mg/mL, read-out: mean percent unbound): 0.00101; fraction unbound at 8 h, 500 ng/mL ([1]; condition 2: varying albumin 25-50 mg/mL, AAG 1 mg/mL, read-out: fu (percent unbound)): 0.00404; fraction unbound at 8 h ([1]; condition 3: varying lurbinectedin 50-500 ng/mL, AAG 1 mg/mL, albumin 40 mg/mL, read-out: fu (percent unbound)): 0.00393; fraction unbound at 8 h, 500 ng/mL ([2]; human, read-out: mean percent unbound): 0.0895; percent bound [2]: 91.1%; percent bound ([3]; AAG 0.25 mg/mL, albumin 40 mg/mL, lurbinectedin 500 ng/mL): 98.3%; percent bound ([3]; AAG 0.75 mg/mL, albumin 40 mg/mL, lurbinectedin 500 ng/mL): 99.4%; percent bound ([3]; AAG 1 mg/mL, albumin 40 mg/mL, lurbinectedin 500 ng/mL): 99.5%; percent bound ([3]; AAG 2 mg/mL, albumin 40 mg/mL, lurbinectedin 500 ng/mL): 99.7%; percent bound ([3]; AAG 4 mg/mL, albumin 40 mg/mL, lurbinectedin 500 ng/mL): 99.9%; percent bound ([3]; condition 2: varying albumin 25-50 mg/mL, AAG 1 mg/mL, lurbinectedin 500 ng/mL): 99.6%; percent bound ([3]; condition 3: varying lurbinectedin 50-500 ng/mL, AAG 1 mg/mL, albumin 40 mg/mL): 99.6%; plasma concentration in a treated patient sample [4]: 177 ng/mL
